Source: PubChem BioAssay AID623988 (Vanderbilt High Throughput Screening Facility, 2012)

Target: Voltage-gated inwardly rectifying potassium channel KCNH2 (Homo sapiens) (UniProt Q12809)
Test: hERG channel inhibition by thallium flux, dose response, selectivity assay for GIRK activator project, cell-based, concentration-response (AID 623988)
Settings: hERG-expressing HEK293 cells, thallium flux fluorescence

Chain of Voltage-gated inwardly rectifying potassium channel KCNH2 (Homo sapiens) (Q12809 whole entry, looked up): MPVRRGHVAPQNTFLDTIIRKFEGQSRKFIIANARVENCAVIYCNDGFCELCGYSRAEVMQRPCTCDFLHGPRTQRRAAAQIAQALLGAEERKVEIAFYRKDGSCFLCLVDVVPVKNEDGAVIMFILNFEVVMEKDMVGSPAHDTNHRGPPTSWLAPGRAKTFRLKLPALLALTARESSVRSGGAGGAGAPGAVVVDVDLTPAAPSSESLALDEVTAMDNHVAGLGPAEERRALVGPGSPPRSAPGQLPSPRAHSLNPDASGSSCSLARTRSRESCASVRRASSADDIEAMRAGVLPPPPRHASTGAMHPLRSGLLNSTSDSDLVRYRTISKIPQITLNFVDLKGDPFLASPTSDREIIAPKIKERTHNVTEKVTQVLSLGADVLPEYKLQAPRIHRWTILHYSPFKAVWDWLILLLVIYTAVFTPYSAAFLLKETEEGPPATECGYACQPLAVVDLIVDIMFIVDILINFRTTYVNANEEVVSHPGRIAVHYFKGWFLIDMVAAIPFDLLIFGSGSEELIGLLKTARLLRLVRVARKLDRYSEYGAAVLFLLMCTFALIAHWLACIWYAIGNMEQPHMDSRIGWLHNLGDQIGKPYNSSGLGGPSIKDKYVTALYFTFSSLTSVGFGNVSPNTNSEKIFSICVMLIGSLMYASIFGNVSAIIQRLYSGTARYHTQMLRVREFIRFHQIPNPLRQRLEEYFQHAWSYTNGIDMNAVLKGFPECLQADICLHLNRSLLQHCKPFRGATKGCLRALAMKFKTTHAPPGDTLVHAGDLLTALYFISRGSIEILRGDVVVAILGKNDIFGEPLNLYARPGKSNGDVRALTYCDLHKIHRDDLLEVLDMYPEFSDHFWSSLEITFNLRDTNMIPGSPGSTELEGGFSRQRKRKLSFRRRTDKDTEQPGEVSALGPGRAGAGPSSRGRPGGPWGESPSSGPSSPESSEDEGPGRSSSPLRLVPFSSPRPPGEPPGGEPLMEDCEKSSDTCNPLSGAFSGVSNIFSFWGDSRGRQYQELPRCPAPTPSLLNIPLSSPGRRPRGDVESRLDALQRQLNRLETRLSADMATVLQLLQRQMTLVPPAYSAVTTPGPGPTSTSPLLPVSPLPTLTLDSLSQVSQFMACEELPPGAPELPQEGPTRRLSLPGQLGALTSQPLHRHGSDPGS

Cc1cc(NC(=O)Nc2ccc(F)c(F)c2)n(-c2ccccc2)n1
IC50: 10.8 µM
